In assay [1] the target is 5-hydroxytryptamine receptor 2A (Rattus norvegicus, UniProt P14842). Nature of the assay: Binding affinity towards 5-hydroxytryptamine 2A receptor using [3H]ketanserin.
For assay [2], the target named is D(2) dopamine receptor (Rattus norvegicus, UniProt P61169). Nature of the assay: Binding affinity towards Dopamine receptor D2 in rat […] using [3H]spiperone. The format is tissue-based.

Usually Ki stands for a dissociation constant, usually derived from enzyme kinetics or from competition with a known ligand. A low value points to tighter binding.

Sequence of D(2) dopamine receptor (P61169 whole entry): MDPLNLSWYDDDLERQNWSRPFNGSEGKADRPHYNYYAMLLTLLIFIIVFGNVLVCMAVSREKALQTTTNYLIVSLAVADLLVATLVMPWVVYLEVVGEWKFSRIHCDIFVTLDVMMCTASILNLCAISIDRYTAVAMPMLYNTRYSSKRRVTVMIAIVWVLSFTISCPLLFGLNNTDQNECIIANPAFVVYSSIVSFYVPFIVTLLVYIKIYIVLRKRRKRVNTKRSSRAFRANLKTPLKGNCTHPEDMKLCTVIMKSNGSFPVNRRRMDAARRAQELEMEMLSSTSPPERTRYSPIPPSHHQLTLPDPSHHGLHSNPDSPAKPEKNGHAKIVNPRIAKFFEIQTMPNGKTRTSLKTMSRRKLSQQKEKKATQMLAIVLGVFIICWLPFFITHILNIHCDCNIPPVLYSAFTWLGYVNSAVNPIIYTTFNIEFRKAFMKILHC
Sequence of 5-hydroxytryptamine receptor 2A (P14842 whole entry): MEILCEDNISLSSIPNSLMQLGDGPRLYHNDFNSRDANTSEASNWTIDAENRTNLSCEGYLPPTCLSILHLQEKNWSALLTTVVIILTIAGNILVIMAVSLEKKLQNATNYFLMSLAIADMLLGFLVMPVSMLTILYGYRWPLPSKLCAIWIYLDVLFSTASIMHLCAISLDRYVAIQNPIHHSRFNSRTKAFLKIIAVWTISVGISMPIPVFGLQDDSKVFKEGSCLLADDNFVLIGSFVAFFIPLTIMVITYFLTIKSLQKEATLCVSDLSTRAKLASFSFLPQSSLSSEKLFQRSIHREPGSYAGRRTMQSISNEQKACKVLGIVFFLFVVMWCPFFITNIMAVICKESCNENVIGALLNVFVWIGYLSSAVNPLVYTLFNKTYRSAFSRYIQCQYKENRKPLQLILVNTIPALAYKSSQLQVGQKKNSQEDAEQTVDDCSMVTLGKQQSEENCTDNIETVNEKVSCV

On to `COc1cc(=O)oc2cc(OCCCN3CCN(c4ncccn4)CC3)ccc12`, for which the results for the inhibition constant (Ki) in assay [1] and in assay [2] were 138 nM and 47.9 nM, respectively.

Consider `COc1ccccc1N1CCN(CCCOc2ccc3c(OC)cc(=O)oc3c2)CC1`, for which the Ki in assay [1] was 3090 nM; in assay [2], 17.8 nM.

For `Cc1cc(=O)oc2cc(OCCCN3CCN(c4ncccn4)CC3)ccc12`, the Ki in assay [1] is 2340 nM; in assay [2], 324 nM.

As to `Cc1cc(=O)oc2cc(OCCCN3CCN(c4ccccc4)CC3)ccc12`, the Ki in assay [1] is 933 nM; in assay [2], 45.7 nM.

Turning to `COc1cc(=O)oc2cc(OCCCN3CCN(c4ccccc4)CC3)ccc12`, the inhibition constant Ki in assay [1] is 1950 nM; in assay [2] it was 562 nM.

For the molecule `COc1cc(=O)oc2cc(OCCCN3CCN(c4ccccn4)CC3)ccc12`, the figures for the Ki in assay [1] and in assay [2] were 537 nM and 129 nM, respectively.

`Cc1cc(=O)oc2cc(OCCCN3CCN(c4ccccn4)CC3)ccc12`: the results for the inhibition constant (Ki) in assay [1] and in assay [2] were 1070 nM and 81.3 nM, respectively.

Turning to `COc1ccccc1N1CCN(CCCOc2ccc3c(C)cc(=O)oc3c2)CC1`, the inhibitory constant (Ki) in assay [1] was 174 nM; in assay [2], 11.7 nM.

The values above are taken from ChEMBL document CHEMBL1145876, “New arylpiperazine derivatives with high affinity for alpha1A, D2 and 5-HT2A receptors” (Bioorg Med Chem Lett, 2003).
